The supplement of paper PMC11208160

Test: recombinant UMI read abundance after kanamycin selection (control-corrected) (log10(CPM+1)); higher = more efficient recombination; extreme values may be limits of the assay; sequences stand for … in AGTGCAGAGAAAATCGGCCAGTTTTCTCTGCCTGCAGTCCGCATGCCGTGGGACCCCTTGGGTTCTAACCTGTTGCCTAGATTTATGCAGCGGACTGCCTTTCTCCCAAAGTGATAAACCGG…AGGTTGGTTTCACT; site = the 11-nt donor
In short: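 Values are reported as log10(CPM+1), obtained by converting sequencing counts to CPM, averaging replicates and scaling by control-derived factors. The counts came from recombinant UMIs amplified by PCR across the donor–target junction. These UMIs came from a pooled Escherichia coli screen of donor and donor-binding-loop pairs for the IS621 bridge recombinase, plated with IPTG (0.07 mM) plus kanamycin or left unselected, in two replicates each.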
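Also: IS621 bridge recombinase in Escherichia coli cells against a fixed T5 target plasmid.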

Sequence | recombinant UMI read abundance (log10)
CCCTACACATGGACCGGTTTTCCCGGTAATCCGTATTTGCT (site CGCTACACTAG) | 0.477
CCCTACACATGGACCGGTTTTCCCGGTAATCCGTATTTGCT (site CTCTACACTAG) | 0.347
CCCTAGACATGGACCGGTTTTCCCGGTAATCCGTATTTGCC (site CCCTAGACTGG) | 1.04
CCCTAGACATGGACCGGTTTTCCCGGTAATCCGTATTTGCC (site CCCTAGCCTGG) | 0
CCCTAGACATGGACCGGTTTTCCCGGTAATCCGTATTTGCC (site CCCTAGGCTGG) | 1.18
CCCTAGACATGGACCGGTTTTCCCGGTAATCCGTATTTGCC (site CCCTAGTCTGG) | 0
CCCTAGACATGGACCGGTTTTCCCGGTAATCCGTATTTGCT (site CCCTAGACTAG) | 0.956
CCCTAGCCATGGACCGGTTTTCCCGGTAATCCGTATTTGAC (site CCCTAGCCTGA) | 0
CCCTAGCCATGGACCGGTTTTCCCGGTAATCCGTATTTGAC (site CCCTAGCCTGC) | 0
CCCTAGCCATGGACCGGTTTTCCCGGTAATCCGTATTTGAC (site CCCTAGCCTGG) | 0
CCCTAGCCATGGACCGGTTTTCCCGGTAATCCGTATTTGAC (site CCCTAGCCTGT) | 0
CCCTAGCCATGGACCGGTTTTCCCGGTAATCCGTATTTGCA (site CCCTAGCCTAG) | 0
CCCTAGCCATGGACCGGTTTTCCCGGTAATCCGTATTTGCA (site CCCTAGCCTCG) | 0
CCCTAGCCATGGACCGGTTTTCCCGGTAATCCGTATTTGCA (site CCCTAGCCTGG) | 0
CCCTAGCCATGGACCGGTTTTCCCGGTAATCCGTATTTGCA (site CCCTAGCCTTG) | 0
CCCTAGCCATGGACCGGTTTTCCCGGTAATCCGTATTTGCG (site CCCTAGCCTAG) | 0
CCCTAGCCATGGACCGGTTTTCCCGGTAATCCGTATTTGCG (site CCCTAGCCTCG) | 0.0131
CCCTAGCCATGGACCGGTTTTCCCGGTAATCCGTATTTGCG (site CCCTAGCCTGG) | 0
CCCTAGCCATGGACCGGTTTTCCCGGTAATCCGTATTTGCG (site CCCTAGCCTTG) | 0
CCCTAGCCATGGACCGGTTTTCCCGGTAATCCGTATTTGCT (site CCCTAGCCTAG) | 0
CCCTAGCCATGGACCGGTTTTCCCGGTAATCCGTATTTGCT (site CCCTAGCCTCG) | 0
CCCTAGCCATGGACCGGTTTTCCCGGTAATCCGTATTTGCT (site CCCTAGCCTGG) | 0
CCCTAGCCATGGACCGGTTTTCCCGGTAATCCGTATTTGCT (site CCCTAGCCTTG) | 0

Sequence | recombinant UMI read abundance (log10)
CCCTCAACATGGACCGGTTTTCCCGGTAATCCGTATTTGAT (site CCCTCAACTAT) | 0.00694
CCCTCAACATGGACCGGTTTTCCCGGTAATCCGTATTTGGG (site CCCTCAACTCC) | 0.0112
CCCTCCTCATGGACCGGTTTTCCCGGTAATCCGTATTTGAG (site CCCTCCTCTCT) | 0.256
CCCTCCTCATGGACCGGTTTTCCCGGTAATCCGTATTTGGG (site CCCTACTCTCC) | 0.0129
CCCTCCTCATGGACCGGTTTTCCCGGTAATCCGTATTTGGG (site CCCTCCTCTCC) | 0.487
CCCTCCTCATGGACCGGTTTTCCCGGTAATCCGTATTTGGG (site CCCTGCTCTCC) | 0
CCCTCCTCATGGACCGGTTTTCCCGGTAATCCGTATTTGGG (site CCCTTCTCTCC) | 0.00367
CCCTGATCATGGACCGGTTTTCCCGGTAATCCGTATTTGAG (site CCCTGATCTCT) | 0.248
CCCTTATCATGGACCGGTTTTCCCGGTAATCCGTATTTGGG (site CCCTTATCTCC) | 0.162
CCCTTATCATGGACCGGTTTTCCCGGTAATCCGTATTTGGG (site CCCTTCTCTCC) | 0.0199
CCCTTATCATGGACCGGTTTTCCCGGTAATCCGTATTTGGG (site CCCTTGTCTCC) | 0.0199
CCCTTATCATGGACCGGTTTTCCCGGTAATCCGTATTTGGG (site CCCTTTTCTCC) | 0
CCCTTCTCATGGACCGGTTTTCCCGGTAATCCGTATTTGGT (site CCCTTCTCTAC) | 1.32
CCCTTCTCATGGACCGGTTTTCCCGGTAATCCGTATTTGGT (site CCCTTCTCTCC) | 0.182
CCCTTCTCATGGACCGGTTTTCCCGGTAATCCGTATTTGGT (site CCCTTCTCTGC) | 0
CCCTTCTCATGGACCGGTTTTCCCGGTAATCCGTATTTGGT (site CCCTTCTCTTC) | 0.121
CCCTTGGCATGGACCGGTTTTCCCGGTAATCCGTATTTGGA (site CACTTGGCTTC) | 0.0394
CCCTTGGCATGGACCGGTTTTCCCGGTAATCCGTATTTGGA (site CCCTTGGCTTC) | 0.107
CCCTTGGCATGGACCGGTTTTCCCGGTAATCCGTATTTGGA (site CGCTTGGCTTC) | 0.0127
CCCTTGGCATGGACCGGTTTTCCCGGTAATCCGTATTTGGA (site CTCTTGGCTTC) | 0.00833
CCGAAAACATGGACCGGTTTTCCCGGTAATCCGTATTTGCT (site ACGAAAACTAG) | 0
CCGAAAACATGGACCGGTTTTCCCGGTAATCCGTATTTGCT (site CCGAAAACTAG) | 0.973
CCGAAAACATGGACCGGTTTTCCCGGTAATCCGTATTTGCT (site GCGAAAACTAG) | 0

Sequence | recombinant UMI read abundance (log10)
CCGAAAACATGGACCGGTTTTCCCGGTAATCCGTATTTGCT (site TCGAAAACTAG) | 0
CCGAAACCATGGACCGGTTTTCCCGGTAATCCGTATTTGCG (site CCGAAACCTCG) | 0
CCGAATCCATGGACCGGTTTTCCCGGTAATCCGTATTTGTT (site CAGAATCCTAA) | 0
CCGAATCCATGGACCGGTTTTCCCGGTAATCCGTATTTGTT (site CCGAATCCTAA) | 0.251
CCGAATCCATGGACCGGTTTTCCCGGTAATCCGTATTTGTT (site CGGAATCCTAA) | 0
CCGAATCCATGGACCGGTTTTCCCGGTAATCCGTATTTGTT (site CTGAATCCTAA) | 0.00536
CCGACCGCATGGACCGGTTTTCCCGGTAATCCGTATTTGTA (site CCGACCGCTTA) | 0.904
CCGAGTCCATGGACCGGTTTTCCCGGTAATCCGTATTTGAA (site CCGAGTCCTTT) | 0.417
CCGATTACATGGACCGGTTTTCCCGGTAATCCGTATTTGCT (site CCGATTACTAG) | 0.743
CCGATTACATGGACCGGTTTTCCCGGTAATCCGTATTTGCT (site CCGCTTACTAG) | 0
CCGATTACATGGACCGGTTTTCCCGGTAATCCGTATTTGCT (site CCGGTTACTAG) | 0
CCGATTACATGGACCGGTTTTCCCGGTAATCCGTATTTGCT (site CCGTTTACTAG) | 0
CCGCCACCATGGACCGGTTTTCCCGGTAATCCGTATTTGAT (site CCGCCACCTAT) | 0.00762
CCGCCGACATGGACCGGTTTTCCCGGTAATCCGTATTTGTT (site CCGCCGACTAA) | 0.275
CCGCTACCATGGACCGGTTTTCCCGGTAATCCGTATTTGCT (site CAGCTACCTAG) | 0
CCGCTACCATGGACCGGTTTTCCCGGTAATCCGTATTTGCT (site CCGCTACCTAG) | 0
CCGCTACCATGGACCGGTTTTCCCGGTAATCCGTATTTGCT (site CGGCTACCTAG) | 0
CCGCTACCATGGACCGGTTTTCCCGGTAATCCGTATTTGCT (site CTGCTACCTAG) | 0.00224
CCGCTAGCATGGACCGGTTTTCCCGGTAATCCGTATTTGTG (site CCGATAGCTCA) | 0.0148
CCGCTAGCATGGACCGGTTTTCCCGGTAATCCGTATTTGTG (site CCGCTAGCTCA) | 0.337
CCGCTAGCATGGACCGGTTTTCCCGGTAATCCGTATTTGTG (site CCGGTAGCTCA) | 0.0182
CCGCTAGCATGGACCGGTTTTCCCGGTAATCCGTATTTGTG (site CCGTTAGCTCA) | 0
